Values belong to the compound of their own block, whether it stands above or below them.
Target: T1, hCRTH2 (Homo sapiens, UniProt Q9Y5Y4)
T1 construct: expressed in transfected cells; host or cells: HEK cell line expressing hCRTH2 (HEK-hCRTH2); membranes
T1 sequence (Q9Y5Y4 1-395): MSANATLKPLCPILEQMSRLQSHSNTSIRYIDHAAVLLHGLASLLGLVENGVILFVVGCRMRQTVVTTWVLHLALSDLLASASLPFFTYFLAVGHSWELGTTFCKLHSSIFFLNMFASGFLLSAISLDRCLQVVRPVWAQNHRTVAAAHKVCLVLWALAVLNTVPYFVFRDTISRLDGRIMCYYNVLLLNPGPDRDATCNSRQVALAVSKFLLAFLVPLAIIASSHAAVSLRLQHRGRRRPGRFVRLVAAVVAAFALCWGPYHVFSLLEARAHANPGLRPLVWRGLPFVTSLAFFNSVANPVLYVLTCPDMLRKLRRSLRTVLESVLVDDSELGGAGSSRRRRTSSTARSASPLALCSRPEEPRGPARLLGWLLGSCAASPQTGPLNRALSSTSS
Assay: Radioligand binding assay ([3H]PGD2 competition, membranes from HEK-hCRTH2 cell line)
Conditions: 0.7 nM [3H]PGD2, membrane protein from HEK-hCRTH2 cell line, 60 min at room temperature; values given as ranges
Description: Radioligand Binding Assay.
Radioligand binding assays were performed at room temperature in 10 mM HEPES/KOH pH 7.4, 1 mM EDTA containing 10 mM MnCl2 and 0.7 nM [^3H]PGD2 (NEN, 171 Ci mmol^−1), in a final volume of 0.2 ml. Competing ligands were diluted in dimethylsulfoxide (Me2SO) that was kept constant at 1% (v/v) of the final incubation volume. The reaction was initiated by the addition of 8-20 μg of membrane protein prepared from a HEK-hCRTH2 cell line. Total and non-specific binding were determined in the absence and the presence of 10 μM PGD2, respectively. Under these conditions, specific binding (total minus non-specific) of the radioligand to the receptor reached equilibrium within 50 min and was stable up to 180 min. The reaction was routinely conducted for 60 min at room temperature and terminated by rapid filtration through prewetted Unifilters GF/C (Packard), using a Tomtec MachIII semi-automated harvester (for HEK-hCRTH2). The filters were then washed with 4 ml of the same buffer and residual radioligand bound to the filter was determined by liquid scintillation counting following equilibration in 25 μl Ultima Gold F™ (Unifilter) (Packard). The Ki (in nM) values for representative compounds of the present invention are as follows: ≦5: Examples 3.1, 5.1, 6.1, 7.1, 8.1/8A, 9.1, 26, 27.1, 28.1, 29.1, 30, 31.1, 31.3, 32.1, 32.4, 33.1, 34.1, 36.1, 38.1, 39, 40, 41; >5 and ≦10: Examples, 4, 5.3, 29.2; >10 and ≦50: Examples 1, 10, 14, 21, 22, 25, 31.4, 32.3, 35, 36.2, 37; >50 and ≦100: Examples 2, 5.4, 6.2, 27.2, 28.2; >100: Examples 3.2, 5.2, 7.2, 8.2, 9.2, 11, 12, 13, 15, 16, 17, 18, 19, 20, 23, 24, 31.2, 32.2, 33.2, 34.2, 38.2.

SMILES: O=C(O)Cc1c2n(c3ccccc13)CC(n1nncc1-c1ccc(F)cc1)CC2 (stereo not drawn) [Example 20, {7-[5-(4-Fluoro-phenyl)-[1,2,3]triazol-1-yl]-6,7,8,9-tetrahydropyrido[1,2-α]indol-10-yl}-acetic acid]
- Ki: > 100 nM

SMILES: O=C(O)Cc1c2n(c3ccccc13)CC(n1nncc1C(O)c1ccc(Br)cc1)CC2 (stereo not drawn) [Example 22, (7-{5-[(4-Bromo-phenyl)-hydroxy-methyl]-[1,2,3]triazol-1-yl}-6,7,8,9-tetrahydropyrido[1,2-α]indol-10-yl)-acetic acid]
- Ki: 10 to 50 nM

SMILES: CC(C)(C)OC(=O)N1CCC(c2cnnn2C2CCc3c(CC(=O)O)c4ccccc4n3C2)CC1 (stereo not drawn) [Example 23, 4-[3-(10-Carboxymethyl-6,7,8,9-tetrahydropyrido[1,2-α]indol-7-yl)-3H-[1,2,3]triazol-4-yl]-piperidine-1-carboxylic acid tert-butyl ester]
- Ki: > 100 nM

SMILES: O=C(O)Cc1c2n(c3ccccc13)CC(n1nncc1C1CCCCC1)CC2 (stereo not drawn) [Example 24, [7-(5-Cyclohexyl-[1,2,3]triazol-1-yl)-6,7,8,9-tetrahydropyrido[1,2-α]indol-10-yl]-acetic acid]
- Ki: > 100 nM

SMILES: O=C(O)Cc1c2n(c3ccccc13)CC(n1nncc1C1(O)c3ccccc3-c3ccccc31)CC2 (stereo not drawn) [Example 25, {7-[5-(9-Hydroxy-9H-fluoren-9-yl)-[1,2,3]triazol-1-yl]-6,7,8,9-tetrahydropyrido[1,2-α]indol-10-yl}-acetic acid]
- Ki: 10 to 50 nM

SMILES: O=C(O)Cc1c2n(c3ccccc13)CC(n1nncc1C(O)(c1ccccc1)C(F)(F)F)CC2 (stereo not drawn) [Example 35, {7-[5-(2,2,2-trifluoro-1-hydroxy-1-phenyl-ethyl)-1H-1,2,3-triazol-1-yl]-6,7,8,9-tetrahydropyrido[1,2-a]indol-10-yl}acetic acid]
- Ki: 10 to 50 nM

The remaining lines, values ahead:

- Ki: 10 to 50 nM
SMILES: O=C(O)Cc1c2n(c3ccccc13)CC(n1nncc1COc1ccccc1)CC2 (stereo not drawn) [Example 21, [7-(5-Phenoxymethyl-[1,2,3]triazol-1-yl)-6,7,8,9-tetrahydropyrido[1,2-α]indol-10-yl]-acetic acid]

- Ki: ≤ 5 nM
SMILES: C=C(c1ccc(F)cc1)c1cnnn1C1CCc2c(CC(=O)O)c3ccccc3n2C1 (stereo not drawn) [Example 26, (7-{5-[1-(4-Fluoro-phenyl)-vinyl]-[1,2,3]triazol-1-yl}-6,7,8,9-tetrahydropyrido[1,2-α]indol-10-yl)-acetic acid]

- Ki: ≤ 5 nM
SMILES: O=C(O)Cc1c2n(c3ccccc13)C[C@H](n1nncc1C(c1ccc(F)cc1)c1ccc(F)cc1)CC2 [Example 30, ((R)-7-{5-[Bis-(4-fluoro-phenyl)-methyl]-[1,2,3]triazol-1-yl}-6,7,8,9-tetrahydropyrido[1,2-α]indol-10-yl)-acetic acid]
